# Measurements published in patent US20180299431A1, “Explant Assay to Determine the Potential for Compositions to Promote or to Inhibit Neural Tube Defects” (Board of Supervisors of Louisiana State University and …, priority 2015, published 2018).
# Key:
# diabetic NOD pregnancies = test: NOD diabetic pregnancies and folinic acid supplementation; format: in vivo, mouse
# Experimental: All animal experiments were performed with prior approval from the Pennington Biomedical Research Center IACUC, and were conducted in accordance with the “Guide for the care and use of laboratory animals” of the United States National Institutes of Health. Animals were housed with a 12-hour light/dark cycle, with access to food and water ad libitum. Mice of the Non-Obese Diabetic strain (NOD/ShiLtJ, The Jackson Laboratory, Bar Harbor, Me.; sometimes referred to as “NOD” mice), as well as male mice of strain FVB were kept on Purina™ 5001 diet (calories provided by: Protein, 28.5%; Fat, 13.5%; Carbohydrate, 58%. LabDiet, Purina Mills Inc., Gray Summit, Mo.). Females of strain FVB were kept on Purina 5015 diet (calories provided by: Protein, 19.8%; Fat, 25.3%; Carbohydrate, 54.8%). Blood glucose levels were monitored weekly in NOD mice. Once blood glucose exceeded 250 mg/dl, females were considered diabetic, and were then used for mating and production of embryos. Diabetic as well as normoglycemic NOD female mice were mated to normoglycemic NOD male mice; once NOD males became hyperglycemic, they were retired from the experiment and were no longer used. Supplementation with folinic acid (12.5 mg/kg body weight, once per week by intraperitoneal injection) was initiated at the age of 10 weeks in 56 NOD females. […]
# [1] = tested on: STZ-induced diabetic mouse pregnancies; settings: cited from earlier work
Structure (SMILES),"NTD incidence (in words) (diabetic NOD pregnancies; NOD strain, folinic acid supplementation)","incidence of neural tube defects in embryos (diabetic NOD pregnancies; diabetic NOD pregnancies, gestation day 10.5, 12.5 mg/kg once per week i.p., 17 NTDs in 81 embryos, unsupplemented 40.2%, Fisher's Exact Test p=0.006)",effect on NTDs (in words) [1]
Nc1nc(=O)c2c([nH]1)NCC(CNc1ccc(C(=O)N[C@@H](CCC(=O)O)C(=O)O)cc1)N2C=O (mixture of isomers) [folinic acid],reduced,21%,
Nc1nc2ncc(CNc3ccc(C(=O)N[C@@H](CCC(=O)O)C(=O)O)cc3)nc2c(=O)[nH]1 [folic acid],,,beneficial effects
